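Tested at 5 concentrations; 48 h exposure; 96-well plates; endpoints linearly interpolated, else capped at highest concentration. TGI: total growth inhibition.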
How the values were obtained:
Test in all cases: NCI-60 cell line screen, 48 h
786-0 renal = tested on: 786-0 renal
A549 NSCLC = tested on: A549 NSCLC
ACHN renal = tested on: ACHN renal
CCRF-CEM leukemia = tested on: CCRF-CEM leukemia
COLO 205 colon = tested on: COLO 205 colon
DLD-1 colon = tested on: DLD-1 colon
DMS 114 small cell lung = tested on: DMS 114 small cell lung
DMS 273 small cell lung = tested on: DMS 273 small cell lung
EKVX NSCLC = tested on: EKVX NSCLC
HCC-2998 colon = tested on: HCC-2998 colon
HCT-15 colon = tested on: HCT-15 colon
HL-60(TB) leukemia = tested on: HL-60(TB) leukemia
HOP-62 NSCLC = tested on: HOP-62 NSCLC
IGROV1 ovarian = tested on: IGROV1 ovarian
K-562 leukemia = tested on: K-562 leukemia
KM12 colon = tested on: KM12 colon
LOX IMVI melanoma = tested on: LOX IMVI melanoma
LXFL 529 NSCLC = tested on: LXFL 529 NSCLC
M14 melanoma = tested on: M14 melanoma
M19-MEL melanoma = tested on: M19-MEL melanoma
MALME-3M melanoma = tested on: MALME-3M melanoma
MOLT-4 leukemia = tested on: MOLT-4 leukemia
NCI-H226 lung = tested on: NCI-H226 lung
NCI-H23 lung = tested on: NCI-H23 lung
NCI-H522 lung = tested on: NCI-H522 lung
OVCAR-3 ovarian = tested on: OVCAR-3 ovarian
OVCAR-4 ovarian = tested on: OVCAR-4 ovarian
OVCAR-5 ovarian = tested on: OVCAR-5 ovarian
OVCAR-8 ovarian = tested on: OVCAR-8 ovarian
RPMI-8226 leukemia = tested on: RPMI-8226 leukemia
RXF 393 renal = tested on: RXF 393 renal
SF-268 CNS = tested on: SF-268 CNS
SF-295 CNS = tested on: SF-295 CNS
SF-539 CNS = tested on: SF-539 CNS
SK-MEL-2 melanoma = tested on: SK-MEL-2 melanoma
SK-MEL-28 melanoma = tested on: SK-MEL-28 melanoma
SK-MEL-5 melanoma = tested on: SK-MEL-5 melanoma
SK-OV-3 ovarian = tested on: SK-OV-3 ovarian
SN12C renal = tested on: SN12C renal
SNB-19 CNS = tested on: SNB-19 CNS
SNB-75 CNS = tested on: SNB-75 CNS
SNB-78 CNS = tested on: SNB-78 CNS
SR leukemia = tested on: SR leukemia
SW-620 colon = tested on: SW-620 colon
TK-10 renal = tested on: TK-10 renal
U251 CNS = tested on: U251 CNS
UACC-257 melanoma = tested on: UACC-257 melanoma
UACC-62 melanoma = tested on: UACC-62 melanoma
UO-31 renal = tested on: UO-31 renal
XF 498 CNS = tested on: XF 498 CNS
A498 renal = tested on: A498 renal
BT-549 breast = tested on: BT-549 breast
CAKI-1 renal = tested on: CAKI-1 renal
DU-145 prostate = tested on: DU-145 prostate
HCT-116 colon = tested on: HCT-116 colon
HOP-92 NSCLC = tested on: HOP-92 NSCLC
HS 578T breast = tested on: HS 578T breast
HT29 colon = tested on: HT29 colon
MCF7 breast = tested on: MCF7 breast
MDA-MB-231 breast = tested on: MDA-MB-231 breast
MDA-MB-435 = tested on: MDA-MB-435
MDA-N = tested on: MDA-N
NCI-H460 lung = tested on: NCI-H460 lung
NCI/ADR-RES ovarian = tested on: NCI/ADR-RES ovarian
PC-3 prostate = tested on: PC-3 prostate
T-47D breast = tested on: T-47D breast

CCC1CCc2c(OC)ccc(OCC(=O)O)c2C1=O (centres undefined)
TGI (786-0 renal): > 100 µM | TGI (A549 NSCLC): > 100 µM | TGI (ACHN renal): > 100 µM | TGI (CCRF-CEM leukemia): > 100 µM | TGI (COLO 205 colon): > 100 µM | TGI (DLD-1 colon): > 100 µM | TGI (DMS 114 small cell lung): > 100 µM | TGI (DMS 273 small cell lung): > 100 µM | TGI (EKVX NSCLC): > 100 µM | TGI (HCC-2998 colon): > 100 µM | TGI (HCT-15 colon): > 100 µM | TGI (HL-60(TB) leukemia): > 100 µM | TGI (HOP-62 NSCLC): > 100 µM | TGI (IGROV1 ovarian): > 100 µM | TGI (K-562 leukemia): > 100 µM | TGI (KM12 colon): > 100 µM | TGI (LOX IMVI melanoma): > 100 µM | TGI (LXFL 529 NSCLC): > 100 µM | TGI (M14 melanoma): > 100 µM | TGI (M19-MEL melanoma): > 100 µM | TGI (MALME-3M melanoma): > 100 µM | TGI (MOLT-4 leukemia): > 100 µM | TGI (NCI-H226 lung): > 100 µM | TGI (NCI-H23 lung): > 100 µM | TGI (NCI-H522 lung): > 100 µM | TGI (OVCAR-3 ovarian): > 100 µM | TGI (OVCAR-4 ovarian): > 100 µM | TGI (OVCAR-5 ovarian): > 100 µM | TGI (OVCAR-8 ovarian): > 100 µM | TGI (RPMI-8226 leukemia): > 100 µM | TGI (RXF 393 renal): > 100 µM | TGI (SF-268 CNS): > 100 µM | TGI (SF-295 CNS): > 100 µM | TGI (SF-539 CNS): > 100 µM | TGI (SK-MEL-2 melanoma): > 100 µM | TGI (SK-MEL-28 melanoma): > 100 µM | TGI (SK-MEL-5 melanoma): > 100 µM | TGI (SK-OV-3 ovarian): > 100 µM | TGI (SN12C renal): > 100 µM | TGI (SNB-19 CNS): > 100 µM | TGI (SNB-75 CNS): > 100 µM | TGI (SNB-78 CNS): > 100 µM | TGI (SR leukemia): > 100 µM | TGI (SW-620 colon): > 100 µM | TGI (TK-10 renal): > 100 µM | TGI (U251 CNS): > 100 µM | TGI (UACC-257 melanoma): > 100 µM | TGI (UACC-62 melanoma): > 100 µM | TGI (UO-31 renal): > 100 µM | TGI (XF 498 CNS): > 100 µM

COC(=O)C(F)C(Br)C(=O)OC (centres undefined)
TGI (786-0 renal): 6.03 µM | TGI (A498 renal): 43.9 µM | TGI (A549 NSCLC): 39.1 µM | TGI (ACHN renal): 3.39 µM | TGI (BT-549 breast): 31 µM | TGI (CAKI-1 renal): 5.17 µM | TGI (CCRF-CEM leukemia): 2.29 µM | TGI (COLO 205 colon): 3.46 µM | TGI (DU-145 prostate): 27.5 µM | TGI (EKVX NSCLC): 3.92 µM | TGI (HCC-2998 colon): 21 µM | TGI (HCT-116 colon): 6.09 µM | TGI (HCT-15 colon): 3.84 µM | TGI (HL-60(TB) leukemia): 3.93 µM | TGI (HOP-62 NSCLC): 35.7 µM | TGI (HOP-92 NSCLC): 4.96 µM | TGI (HS 578T breast): 68.6 µM | TGI (HT29 colon): 5.43 µM | TGI (IGROV1 ovarian): > 20.5 µM | TGI (K-562 leukemia): 3.72 µM | TGI (KM12 colon): 50.6 µM | TGI (LOX IMVI melanoma): 32 µM | TGI (M14 melanoma): 13.4 µM | TGI (MALME-3M melanoma): 16.5 µM | TGI (MCF7 breast): 15.6 µM | TGI (MDA-MB-231 breast): 28.3 µM | TGI (MDA-MB-435): 27.3 µM | TGI (MDA-N): 22.7 µM | TGI (MOLT-4 leukemia): 3.01 µM | TGI (NCI-H226 lung): 43.4 µM | TGI (NCI-H23 lung): 13.5 µM | TGI (NCI-H460 lung): 39.3 µM | TGI (NCI-H522 lung): 3.94 µM | TGI (NCI/ADR-RES ovarian): 8.93 µM | TGI (OVCAR-3 ovarian): 4.33 µM | TGI (OVCAR-4 ovarian): 19.8 µM | TGI (OVCAR-5 ovarian): 31.8 µM | TGI (OVCAR-8 ovarian): 12.6 µM | TGI (PC-3 prostate): 10.1 µM | TGI (RPMI-8226 leukemia): 3.88 µM | TGI (RXF 393 renal): 6.95 µM | TGI (SF-268 CNS): 24.4 µM | TGI (SF-295 CNS): 70.1 µM | TGI (SF-539 CNS): 20.4 µM | TGI (SK-MEL-2 melanoma): 32.6 µM | TGI (SK-MEL-28 melanoma): 34.3 µM | TGI (SK-MEL-5 melanoma): 34 µM | TGI (SK-OV-3 ovarian): 34.6 µM | TGI (SN12C renal): 30.9 µM | TGI (SNB-19 CNS): > 79.3 µM | TGI (SNB-75 CNS): 31 µM | TGI (SR leukemia): 3.27 µM | TGI (SW-620 colon): 4.56 µM | TGI (T-47D breast): 6.63 µM | TGI (TK-10 renal): 5.37 µM | TGI (U251 CNS): 9.84 µM | TGI (UACC-257 melanoma): 28.4 µM | TGI (UACC-62 melanoma): 30.4 µM | TGI (UO-31 renal): 3.52 µM
